The text below walks through data of article PMC11850406, “Large-scale screening of HIV-1 T-cell epitopes restricted by 12 prevalent HLA-A allotypes in Northeast Asia and universal detection of HIV-1-specific CD8^+ T cells” (Frontiers in Microbiology, 2025).

Where two headings read alike, the source gives them in different places. Where no end group is shown, it is not given here.

One test has as its target T1, HLA-A1101 (Homo sapiens, UniProt P04439, A114D/D185E/E176A/F33Y/L180Q/S129P/T187R).
T1 construct: expressed in transfected cells; host or cells: HMy2.CIR
The experiment in a line: cell-based. It counts as binding. The settings on record: for 5-μM inhibition (%) / inhibition at 5 µM: peptide 5 μM vs FITC-labeled reference peptide 300 nM; for 5-μM inhibition (%) / 15-μM inhibition (%) / inhibition at 5 µM / inhibition at 15 µM: 24 h, 4°C, flow cytometry; for 15-μM inhibition (%) / inhibition at 15 µM: peptide 15 μM vs FITC-labeled reference peptide 300 nM; for inhibition at 5 µM: read-out: 5-μM inhibition (%); for inhibition at 15 µM: read-out: 15-μM inhibition (%).

For the next test, the target named is HLA-A2402 (Homo sapiens, UniProt P04439, D101N/D140Y/D185E/E176V/E190D/F33S/G103R/G107R/I119L/I121M/I306V/K335N/L105A/L180Q/L300P/N151K/N90K/Q86E/Q94H/R106L/R138H/R89G/T104I/T345S/V100E/W191G/Y123F). The experiment in a line: cell-based. It is filed as binding. The following applies: for inhibition at 5 µM / inhibition at 15 µM / 5-μM inhibition (%) / 15-μM inhibition (%): A2402, 24 h, 4°C, flow cytometry; for inhibition at 5 µM / 5-μM inhibition (%): peptide 5 μM vs FITC-labeled reference peptide 300 nM; for inhibition at 15 µM / 15-μM inhibition (%): peptide 15 μM vs FITC-labeled reference peptide 300 nM.

[1] abbreviates: A1101, class from inhibition at 5 and 15 μM of FITC-labeled reference peptide binding, read-out: Affinity.

Take ASCDQCQLK [Peptide P38]: on HLA-A1101 (A1101), the “5-μM inhibition (%)” value was found to be 12.62% and the “15-μM inhibition (%)” value was 33.56%.

In turn, ATESIVIWGK [Peptide P36] had an IC50 at HLA-A1101 below 5 µM. Besides, at HLA-A1101 (A1101), the inhibition at 5 µM was found to be 88.3% and the inhibition at 15 µM was 90.7%.

Turning to CTPAGYAILK [Peptide P23], on HLA-A1101 (setting [1]), the IC50 was below 5 µM. On HLA-A1101 (A1101), the inhibition at 5 µM turned out to be 70.1% and the inhibition at 15 µM stood at 88.1%.

For the sequence ELYPLTSLK [Peptide P29], on HLA-A1101, the IC50 was below 5 µM. Besides, at HLA-A1101 (A1101), the inhibition at 5 µM was found to be 51.1% and the inhibition at 15 µM came to 79.9%.

Take FYCNTSGLF [Peptide P46]: at HLA-A2402, the IC50 was below 5 µM, 5 µM produced 95% inhibition and testing at 15 µM gave an inhibition of 99.5%.

At HLA-A2402, FYCNTTKLF [Peptide P49] showed an IC50 of 5 to 15 µM, an inhibition at 5 µM of 49.2% and an inhibition at 15 µM of 60.5%.

The sequence GSNFTSAAVK [Peptide P37] gave an IC50 against HLA-A1101 below 5 µM. Also, at HLA-A1101 (A1101), the inhibition at 5 µM turned out to be 74% and the inhibition at 15 µM turned out to be 91%.

For the sequence GTYTPNGTK [Peptide P22], the IC50 on HLA-A1101 lay in the range of 5 to 15 µM. On HLA-A1101 (A1101), the inhibition at 5 µM amounted to 43.2% and the inhibition at 15 µM came to 87.4%.

As to HYMLKHLVW [Peptide P55], at HLA-A2402, the “5-μM inhibition (%)” value is on record as 13.48% and the “15-μM inhibition (%)” value amounted to 31.20%.

Consider ITNWLWYIK [Peptide P20], for which, on HLA-A1101, the IC50 was below 5 µM. Also, at HLA-A1101 (A1101), the inhibition at 5 µM came out at 69.8% and the inhibition at 15 µM turned out to be 71%.

With IVIWGKTPK [Peptide P43], on HLA-A1101, the IC50 was below 5 µM. Besides, on HLA-A1101 (A1101), the inhibition at 5 µM worked out at 80.2% and the inhibition at 15 µM came to 90.1%.

IVKCFNCGK [Peptide P32]: at HLA-A1101 (A1101), the “5-μM inhibition (%)” value is listed as 20.16% and the “15-μM inhibition (%)” value is listed as 36.81%.

IWGKTPKFRL [Peptide P62]: at HLA-A2402, the “5-μM inhibition (%)” value was 21.17% and the “15-μM inhibition (%)” value is listed as 37.66%.

IYKRWIILGL [Peptide P56]: at HLA-A2402, the “5-μM inhibition (%)” value amounted to 20.61% and the “15-μM inhibition (%)” value came out at 25.51%.

On HLA-A2402, KYRLKHLVW [Peptide P54] displayed an IC50 of 5 to 15 µM, an inhibition at 5 µM of 35.8% and an inhibition at 15 µM of 79.5%.

On HLA-A2402, MYSPTSILDI [Peptide P52] returned an IC50 of 5 to 15 µM, an inhibition at 5 µM of 21.6% and an inhibition at 15 µM of 79.4%.

At HLA-A2402, MYSPVSILDI [Peptide P53] displayed an IC50 below 5 µM, an inhibition at 5 µM of 75.5% and an inhibition at 15 µM of 98.1%.

In the case of RTAHTNDVK [Peptide P39], the IC50 on HLA-A1101 (setting [1]) is below 5 µM. In addition, at HLA-A1101 (A1101), the inhibition at 5 µM was 60.4% and the inhibition at 15 µM amounted to 86.2%.

For SILRGGKLDK [Peptide P30], on HLA-A1101 (A1101), the “5-μM inhibition (%)” value was 19.77% and the “15-μM inhibition (%)” value was determined as 47.09%.

Consider SSWSNKSQK [Peptide P24], for which, at HLA-A1101 (A1101), the “5-μM inhibition (%)” value turned out to be 20.55% and the “15-μM inhibition (%)” value was 36.55%.

In the case of SVIKQACPK [Peptide P21], the IC50 against HLA-A1101 is 5 to 15 µM. Further, on HLA-A1101 (A1101), the inhibition at 5 µM stood at 29.7% and the inhibition at 15 µM stood at 68.9%.

At HLA-A1101, SVPLDESFRK [Peptide P42] showed an IC50 below 5 µM. For the same sequence, on HLA-A1101 (A1101), the inhibition at 5 µM was 89.9% and the inhibition at 15 µM is 93.8%.

SVQCTHGIK [Peptide P25]: on HLA-A1101 (setting [1]), the IC50 was below 5 µM. For the same sequence, at HLA-A1101 (A1101), the inhibition at 5 µM was 61.4% and the inhibition at 15 µM was determined as 85.6%.

Sequence TTLFCASDAK [Peptide P28] returned an IC50 at HLA-A1101 below 5 µM. Moreover, on HLA-A1101 (A1101), the inhibition at 5 µM came out at 78.4% and the inhibition at 15 µM was found to be 92.2%.

The sequence TVQPIQLPEK [Peptide P35] displayed an IC50 on HLA-A1101 below 5 µM. Also, on HLA-A1101 (A1101), the inhibition at 5 µM worked out at 88.7% and the inhibition at 15 µM came out at 93.9%.

VTENFNMWK [Peptide P26] registered an IC50 at HLA-A1101 below 5 µM. Moreover, at HLA-A1101 (A1101), the inhibition at 5 µM amounted to 86.6% and the inhibition at 15 µM was determined as 92.9%.
